Assay results published in ChEMBL document CHEMBL3763141, “Anti-Candida Cassane-Type Diterpenoids from the Root Bark of Swartzia simplex” (2015).
≈ marks a conversion by molar mass, not a printed value. Calls of active or inactive are those of the source. The calls are words filed in the database; no cut-off is given here.

Columns and labels:
Candida albicans [1] = assay: Antifungal activity against Candida albicans CAF2-1 after 24 hrs by spectrophotometry based broth dilution assay; type: functional; details: CAF2-1, 24 h
Candida albicans [2] = assay: Antibiofilm activity against Candida albicans CAF2-1 after 48 hrs by XTT assay; type: functional; details: CAF2-1, 48 h
Candida albicans [3] = assay: Antifungal activity against Candida albicans CAF2-1 after overnight incubation by MTT based bioautography method; type: functional
Candida albicans [4] = assay: Antifungal activity against hypersusceptible Candida albicans DSY2621 mutant after overnight incubation by MTT based bioautography method; type: functional
Candida albicans [5] = assay: Induction of ultrastructural changes in Candida albicans CAF2-1 assessed as cytoplasmic content dis-organization at 16 ug/ml after 18 hrs by uranyl acetate/lead citrate staining based transmission electron microscopy; type: functional, organism-based
Candida albicans [6] = assay: Induction of ultrastructural changes in Candida albicans CAF2-1 assessed as cytoplasmic content dis-organization with disappearance of golgi apparatus at 16 ug/ml after 18 hrs by uranyl acetate/lead citrate staining based transmission electron microscopy; type: functional, organism-based
Candida albicans [7] = assay: Induction of ultrastructural changes in Candida albicans CAF2-1 assessed as cytoplasmic content dis-organization with disappearance of mitochondria at 16 ug/ml after 18 hrs by uranyl acetate/lead citrate staining based transmission electron microscopy; type: functional, organism-based
Candida albicans [8] = assay: Induction of ultrastructural changes in Candida albicans CAF2-1 assessed as retraction of cytoplasm at 16 ug/ml after 18 hrs by uranyl acetate/lead citrate staining based transmission electron microscopy; type: functional, organism-based
Candida albicans [9] = assay: Induction of ultrastructural changes in Candida albicans CAF2-1 assessed as cytoplasmic content dis-organization with disappearance of ribosomes at 16 ug/ml after 18 hrs by uranyl acetate/lead citrate staining based transmission electron microscopy; type: functional, organism-based
Candida albicans [10] = assay: Induction of ultrastructural changes in Candida albicans CAF2-1 assessed as breakage zones of plasma membrane at 16 ug/ml after 18 hrs by uranyl acetate/lead citrate staining based transmission electron microscopy; type: functional, organism-based
Candida albicans [11] = assay: Induction of ultrastructural changes in Candida albicans CAF2-1 assessed as disorganization and disruption of nuclear membrane at 16 ug/ml after 18 hrs by uranyl acetate/lead citrate staining based transmission electron microscopy; type: functional, organism-based
Candida albicans [12] = assay: Induction of ultrastructural changes in Candida albicans CAF2-1 assessed as reduction in budding initiation at 16 ug/ml after 18 hrs by uranyl acetate/lead citrate staining based transmission electron microscopy; type: functional, organism-based

Row | Compound | MIC (Candida albicans [1]) [µg/mL] | MIC (Candida albicans [2]) [µg/mL] | MIC (Candida albicans [3]) [µg] | MIC (Candida albicans [4]) [µg] | also measured
1 | CC1(C)CCC[C@]2(C)c3c(O)c(O)c4ccoc(=O)c4c3CC[C@@H]12 | > 32 | 50 (≈ 152 µM) | – | – | –
2 | COc1ccc(-c2coc3cc(O)c(OC)cc3c2=O)cc1 [CASTANIN] | > 32 | > 50 | >50 | – | –
3 | Clc1ccc(COC(Cn2ccnc2)c2ccc(Cl)cc2Cl)c(Cl)c1 (stereo not given) [MICONAZOLE] | 0.0156 (≈ 0.0375 µM) | – | 0.005 | 0.0006 | –
4 | COc1c(O)c2c(c3c(=O)occc13)CC[C@H]1C(C)(C)C(=O)CC[C@]21C | > 32 | > 50 | >50 | 10 | –
5 | CC1(C)CCC[C@]2(C)c3c(O)c(O)c4c(c3C=C[C@@H]12)C(=O)O[C@@H]4CO | > 32 | 50 (≈ 145 µM) | >50 | >50 | –
6 | CC1(C)CCC[C@]2(C)c3c(O)c(O)c4c(c3CC[C@@H]12)C(=O)OCC4 | > 32 | 50 (≈ 151 µM) | >50 | 8 | –
7 | CC1(C)CCC[C@]2(C)c3c(O)c(O)c4c(c3CC[C@@H]12)C(=O)O[C@H]4CO | 32 (≈ 92.4 µM) | 25 (≈ 72.2 µM) | >50 | 8 | Activity (Candida albicans [5]): Active; Activity (Candida albicans [6]): Active; Activity (Candida albicans [7]): Active; Activity (Candida albicans [8]): Active; Activity (Candida albicans [9]): Active; Activity (Candida albicans [10]): Active; Activity (Candida albicans [11]): Active; Activity (Candida albicans [12]): Active
8 | COc1c(O)c2c(c3c1[C@H](O)COC3=O)CC[C@H]1C(C)(C)CCC[C@]21C | 32 (≈ 88.8 µM) | 50 (≈ 139 µM) | 2 | 5 | –
9 | COc1c(O)c2c(c3c1[C@@H](CO)OC3=O)CC[C@H]1C(C)(C)C(=O)CC[C@]21C | > 32 | > 50 | >50 | >50 | –
10 | COc1c(O)c2c(c3c1CCOC3=O)CC[C@H]1C(C)(C)C(=O)CC[C@]21C | > 32 | > 50 | >50 | >50 | –
11 | C[C@H]1C(CCO)=C(O)C(=O)[C@H]2[C@H]1CC[C@H]1C(C)(C)CCC[C@]21C | > 32 | > 50 | – | <20 | –
12 | COc1c(O)c2c(c3c1[C@@H](CO)OC3=O)CC[C@H]1C(C)(C)CCC[C@]21C | > 32 | > 50 | >50 | 20 | –
13 | COc1c(O)c2c(c3c1[C@@H](CO)OC3=O)CC[C@H]1[C@@H]3C[C@@H]3CC[C@]21C | > 32 | 50 (≈ 145 µM) | – | – | –
14 | COc1c(O)c2c(c3c1CCOC3=O)CC[C@H]1C(C)(C)CCC[C@]21C | > 32 | > 50 | >50 | >50 | –
15 | COc1c(O)c2c(c3c(=O)occc13)CC[C@H]1C(C)(C)CCC[C@]21C | > 32 | > 50 | >50 | – | –
